Results published in US20250360235A1, “RADI[…] AND METHOD FOR RADIOLABELLING” (Telix Innovations SA, priority 2024, published 2025).

Experiment: Radiochemical purity by iTLC over time after radiolabelling
Assay type: physicochemical
Description: Table 1 to Table 5 show the results of various radiolabelling experiments on radiochemical purity and the chelation yield. The radiolabelling experiments in the tables are carried out as described in: • Example 1 for when the gallium-68 source is GE Liquid target generator and EZAG GalliaPharm generator; • Example 2 for when the gallium-68 source is IRE Galli Eo generator; • Example 3 for when the gallium-68 source is GE solid target generator;
However, the experiments were carried out with the amount of ascorbic acid as indicated in the Tables 1 to 5, and the activity as indicated in the Tables 1 to 5. Radiochemical purities were measured at various times (T0, T1, T4, T6) after the radiolabelled experiments have been conducted.
The kits of Example 1, Example 2 or Example 3, with amounts of ascorbic acid as set out in Table 7 were used in the experiments for the ascorbic acid bracketing matrix. Three strengths of [^68Ga]Ga-PSMA-11 will be tested, i.e. 50 mCi/ml, 7 mCi/ml and 1 mCi/ml. Radiochemical purity was determined at different time points (TO, T1, T4 or T6), as set out in Table 7.

[1] = 25 mg ascorbic acid, 46.0-46.1 mCi, 4.38-4.39 mCi/mL, EZAG GalliaPharm, average of 2, T4 (4 h)
[2] = 25 mg ascorbic acid, 46.0-46.1 mCi, 4.38-4.39 mCi/mL, EZAG GalliaPharm, n=2, T0
[3] = 25 mg ascorbic acid, 46.0-46.1 mCi, 4.38-4.39 mCi/mL, EZAG GalliaPharm, n=2, T4 (4 h)
[4] = bracketing ~1 mCi/mL, 18.75 mg ascorbic acid, 8.9-11.5 mCi, 0.85-1.09 mCi/mL, IRE Galli Eo, average of 2, T0
[5] = bracketing ~1 mCi/mL, 18.75 mg ascorbic acid, 8.9-11.5 mCi, 0.85-1.09 mCi/mL, IRE Galli Eo, average of 2, T1 (1 h)
[6] = bracketing ~1 mCi/mL, 25 mg ascorbic acid, 8.8-12.7 mCi, 0.84-1.21 mCi/mL, 2 × IRE Galli Eo, average of 2, T0
[7] = bracketing ~1 mCi/mL, 25 mg ascorbic acid, 8.8-12.7 mCi, 0.84-1.21 mCi/mL, 2 × IRE Galli Eo, average of 2, T1 (1 h)
[8] = bracketing ~1 mCi/mL, 31.25 mg ascorbic acid, 15.2-26.9 mCi, 1.44-2.54 mCi/mL, EZAG GalliaPharm, average of 2, T0
[9] = bracketing ~1 mCi/mL, 31.25 mg ascorbic acid, 15.2-26.9 mCi, 1.44-2.54 mCi/mL, EZAG GalliaPharm, average of 2, T1 (1 h)
[10] = bracketing ~7 mCi/mL, 18.75 mg ascorbic acid, 51.0-58.0 mCi, 5.55-6.5 mCi/mL, IRE Galli Eo, average of 2, T0
[11] = bracketing ~7 mCi/mL, 18.75 mg ascorbic acid, 51.0-58.0 mCi, 5.55-6.5 mCi/mL, IRE Galli Eo, average of 2, T4 (4 h)
[12] = bracketing ~7 mCi/mL, 25 mg ascorbic acid, 51.6-74.4 mCi, 4.56-6.92 mCi/mL, 3 × GE Liquid Target, 3 × IRE Galli Eo, 3 × EZAG GalliaPharm, average of 9, T0
[13] = bracketing ~7 mCi/mL, 25 mg ascorbic acid, 51.6-74.4 mCi, 4.56-6.92 mCi/mL, 3 × GE Liquid Target, 3 × IRE Galli Eo, 3 × EZAG GalliaPharm, average of 9, T4 (4 h)
[14] = bracketing ~7 mCi/mL, 31.25 mg ascorbic acid, 61.5-62.0 mCi, 5.85-5.88 mCi/mL, EZAG GalliaPharm, average of 2, T0
[15] = bracketing ~7 mCi/mL, 31.25 mg ascorbic acid, 61.5-62.0 mCi, 5.85-5.88 mCi/mL, EZAG GalliaPharm, average of 2, T4 (4 h)
[16] = bracketing ~50 mCi/mL, 20 mg ascorbic acid, 514-544 mCi, 48.3-51.9 mCi/mL, GE Solid Target, average of 2, T0
[17] = bracketing ~50 mCi/mL, 20 mg ascorbic acid, 514-544 mCi, 48.3-51.9 mCi/mL, GE Solid Target, average of 2, T6 (6 h)
[18] = bracketing ~50 mCi/mL, 25 mg ascorbic acid, 537-551 mCi, 50.2-51.6 mCi/mL, GE Solid Target, average of 3, T0
[19] = bracketing ~50 mCi/mL, 25 mg ascorbic acid, 537-551 mCi, 50.2-51.6 mCi/mL, GE Solid Target, average of 3, T6 (6 h)
[20] = bracketing ~50 mCi/mL, 31.25 mg ascorbic acid, 500-544 mCi, 48.1-51.7 mCi/mL, GE Solid Target, average of 2, T0

Compound: O=C([O-])CN(CCN(CC(=O)[O-])Cc1cc(CCC(=O)NCCCCCC(=O)NCCCC[C@H](NC(=O)N[C@@H](CCC(=O)O)C(=O)O)C(=O)O)ccc1[O-])Cc1cc(CCC(=O)O)ccc1[O-].[68Ga+3].[OH3+] [[^68Ga]PSMA-11, gallium-68 radiolabelled Glu-urea-Lys-HBED-CC (gozetotide or PSMA-11)]
- Radiochemical Purity (iTLC) Free and Colloidal Ga-68 (%) [1]: 0%
- Radiochemical Purity (iTLC) Ga-68 PSMA-11 (%) [1]: 100%
- Radiochemical Purity (iTLC) Free and Colloidal Ga-68 (%) [2]: C (C = all results conform to specifications)
- Radiochemical Purity (iTLC) Ga-68 PSMA-11 (%) [2]: C (C = all results conform to specifications)
- Radiochemical Purity (iTLC) Free and Colloidal Ga-68 (%) [3]: C (C = all results conform to specifications)
- Radiochemical Purity (iTLC) Ga-68 PSMA-11 (%) [3]: C (C = all results conform to specifications)
- Radiochemical Purity (iTLC) Free and Colloidal Ga-68 (%) [4]: 0%
- Radiochemical Purity (iTLC) Ga-68 PSMA-11 (%) [4]: 100%
- Radiochemical Purity (iTLC) Free and Colloidal Ga-68 (%) [5]: 0%
- Radiochemical Purity (iTLC) Ga-68 PSMA-11 (%) [5]: 100%
- Radiochemical Purity (iTLC) Free and Colloidal Ga-68 (%) [6]: 0%
- Radiochemical Purity (iTLC) Ga-68 PSMA-11 (%) [6]: 100%
- Radiochemical Purity (iTLC) Free and Colloidal Ga-68 (%) [7]: 0%
- Radiochemical Purity (iTLC) Ga-68 PSMA-11 (%) [7]: 100%
- Radiochemical Purity (iTLC) Free and Colloidal Ga-68 (%) [8]: 0%
- Radiochemical Purity (iTLC) Ga-68 PSMA-11 (%) [8]: 100%
- Radiochemical Purity (iTLC) Free and Colloidal Ga-68 (%) [9]: 0%
- Radiochemical Purity (iTLC) Ga-68 PSMA-11 (%) [9]: 100%
- Radiochemical Purity (iTLC) Free and Colloidal Ga-68 (%) [10]: 0%
- Radiochemical Purity (iTLC) Ga-68 PSMA-11 (%) [10]: 100%
- Radiochemical Purity (iTLC) Free and Colloidal Ga-68 (%) [11]: 0%
- Radiochemical Purity (iTLC) Ga-68 PSMA-11 (%) [11]: 100%
- Radiochemical Purity (iTLC) Free and Colloidal Ga-68 (%) [12]: 0%
- Radiochemical Purity (iTLC) Ga-68 PSMA-11 (%) [12]: 100%
- Radiochemical Purity (iTLC) Free and Colloidal Ga-68 (%) [13]: 1%
- Radiochemical Purity (iTLC) Ga-68 PSMA-11 (%) [13]: 99%
- Radiochemical Purity (iTLC) Free and Colloidal Ga-68 (%) [14]: 0%
- Radiochemical Purity (iTLC) Ga-68 PSMA-11 (%) [14]: 100%
- Radiochemical Purity (iTLC) Free and Colloidal Ga-68 (%) [15]: 0%
- Radiochemical Purity (iTLC) Ga-68 PSMA-11 (%) [15]: 100%
- Radiochemical Purity (iTLC) Free and Colloidal Ga-68 (%) [16]: 3%
- Radiochemical Purity (iTLC) Ga-68 PSMA-11 (%) [16]: 97%
- Radiochemical Purity (iTLC) Free and Colloidal Ga-68 (%) [17]: 2%
- Radiochemical Purity (iTLC) Ga-68 PSMA-11 (%) [17]: 98%
- Radiochemical Purity (iTLC) Free and Colloidal Ga-68 (%) [18]: 0%
- Radiochemical Purity (iTLC) Ga-68 PSMA-11 (%) [18]: 100%
- Radiochemical Purity (iTLC) Free and Colloidal Ga-68 (%) [19]: 1%
- Radiochemical Purity (iTLC) Ga-68 PSMA-11 (%) [19]: 99%
- Radiochemical Purity (iTLC) Free and Colloidal Ga-68 (%) [20]: 1%
- Radiochemical Purity (iTLC) Ga-68 PSMA-11 (%) [20]: 99%
- Radiochemical Purity (iTLC) Free and Colloidal Ga-68 (%) (bracketing ~50 mCi/mL, 31.25 mg ascorbic acid, 500-544 mCi, 48.1-51.7 mCi/mL, GE Solid Target, average of 2, T6 (6 h)): 1%
